The test deals with GluA1o-γ8 (GRIA1o-CACNG8 fusion construct; TARP γ8 dependent AMPA receptor) (Homo sapiens (Human), UniProt P42261+Q8WXS5). As to the kind of experiment: Calcium flux assay (FLIPR), inhibition of glutamate response of GluA1o-γ8 channel. It is filed as cell-based. Conditions: HEK293 cells stably expressing GRIA1o-CACNG8 fusion; 15 μM glutamate; pIC50 = negative log of IC50 in molar; read-out: GluR1-γ8 (pIC50) (converted). From the text: This assay was used to test compounds for their ability to inhibit TARP γ8 dependent AMPA receptor activity. The AMPA receptor is a non-selective cation channel activated by glutamate. Ionotropic glutamate receptors normally desensitize too rapidly to allow detectable calcium influx in a FLIPR assay (Strange et al. (2006). “Functional characterisation of homomeric ionotropic glutamate receptors GluR1-GluR6 in a fluorescence-based high throughput screening assay.” Comb Chem High Throughput Screen 9(2): 147-158). But, this desensitization is incomplete, and a substantial steady-state current remains in the sustained presence of glutamate (Cho et al. (2007). “Two families of TARP isoforms that have distinct effects on the kinetic properties of AMPA receptors and synaptic currents.” Neuron 55(6): 890-904).
An in vitro assay was used to determine the potency of test compounds as inhibitors of the glutamate response of the channel formed by GluA1o-γ8. To ensure a 1:1 stoichiometry of GluA10 and γ8 subunits in the expressed channel, a fusion of the cDNAs for GRIA1o and CACNG8 was used. Following Shi et al (2009) “The stoichiometry of AMPA receptors and TARPs varies by neuronal cell type.” Neuron 62(5): […]), the C-terminus of the cDNA for GRI1o was fused to the N-terminus of the cDNA for γ8. The linker sequence was […]. […] A clonal cell line in HEK293 cells stably expressing this construct, with a geneticin selection marker, was generated for use in this assay. Cell expressing the GRIA1o-CACNG8 fusion construct were grown in a monolayer in 96- or 384-well microtiter plates. They were washed with assay buffer (135 mM NaCl, 4 mM KCl, 3 mM CaCl2, 1 mM MgCl2, 5 mM glucose, 10 mM HEPES, pH 7.4, 300 mOs) using a Biotek EL405 plate washer. The cells were then loaded with a calcium-sensitive dye (Calcium-5 or Calcium-6, Molecular Devices) and the test compounds at a range of concentrations. Calcium flux following the addition of 15 μM glutamate was monitored using a Molecular Devices FLIPR Tetra.
The fluorescence in each well was normalized to the fluorescence of negative and positive control wells. […] The responses to glutamate as functions of the test compound concentrations were fitted to a four-parameter logistic function. The fitted parameter corresponding to the midpoint was taken to be the potency of inhibition of the compound.
(In general: Calcium flux is commonly read through the fluorescence of an indicator in the cells.)

Chain of GluA1o-γ8 (GRIA1o-CACNG8 fusion construct; TARP γ8 dependent AMPA receptor) (P42261 other isoform, or with tags, fused parts or gaps): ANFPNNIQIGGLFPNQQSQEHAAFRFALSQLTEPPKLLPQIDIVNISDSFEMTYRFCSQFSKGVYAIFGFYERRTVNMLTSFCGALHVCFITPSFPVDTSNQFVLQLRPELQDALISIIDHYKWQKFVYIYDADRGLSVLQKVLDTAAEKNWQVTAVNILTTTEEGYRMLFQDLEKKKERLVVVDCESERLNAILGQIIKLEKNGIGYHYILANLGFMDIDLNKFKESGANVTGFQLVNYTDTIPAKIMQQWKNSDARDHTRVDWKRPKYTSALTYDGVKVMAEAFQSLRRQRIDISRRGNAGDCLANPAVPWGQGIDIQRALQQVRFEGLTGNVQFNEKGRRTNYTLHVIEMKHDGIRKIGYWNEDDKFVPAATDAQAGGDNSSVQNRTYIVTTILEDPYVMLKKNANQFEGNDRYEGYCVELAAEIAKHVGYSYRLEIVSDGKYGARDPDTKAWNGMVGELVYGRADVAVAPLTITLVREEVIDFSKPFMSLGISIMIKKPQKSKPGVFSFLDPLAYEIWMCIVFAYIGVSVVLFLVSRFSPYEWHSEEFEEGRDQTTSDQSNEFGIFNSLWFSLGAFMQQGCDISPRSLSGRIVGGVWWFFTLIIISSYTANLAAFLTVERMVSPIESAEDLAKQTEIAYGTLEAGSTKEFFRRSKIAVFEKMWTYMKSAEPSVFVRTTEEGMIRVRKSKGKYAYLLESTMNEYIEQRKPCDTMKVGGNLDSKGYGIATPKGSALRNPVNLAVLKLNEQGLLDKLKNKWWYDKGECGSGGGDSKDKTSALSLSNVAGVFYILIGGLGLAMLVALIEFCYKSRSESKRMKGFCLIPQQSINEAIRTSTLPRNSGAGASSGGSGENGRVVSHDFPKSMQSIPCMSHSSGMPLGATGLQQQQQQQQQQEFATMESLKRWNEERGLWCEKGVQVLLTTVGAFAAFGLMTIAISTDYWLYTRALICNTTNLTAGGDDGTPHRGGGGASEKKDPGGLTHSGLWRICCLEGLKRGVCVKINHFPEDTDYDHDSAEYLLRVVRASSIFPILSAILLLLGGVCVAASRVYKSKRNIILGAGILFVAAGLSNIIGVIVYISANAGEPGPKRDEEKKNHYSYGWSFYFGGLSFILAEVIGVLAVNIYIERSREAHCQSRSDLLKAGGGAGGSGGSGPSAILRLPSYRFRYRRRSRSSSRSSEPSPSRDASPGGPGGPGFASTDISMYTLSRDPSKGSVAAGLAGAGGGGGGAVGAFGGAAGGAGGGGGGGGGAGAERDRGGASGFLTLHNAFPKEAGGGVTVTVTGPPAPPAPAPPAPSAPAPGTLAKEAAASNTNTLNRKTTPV

In the case of `CN(C)c1nccn2c(-c3ccc4c(c3)CC(=O)N4)c(C(=O)Nc3ccccc3)nc12` [Example 144, 8-(Dimethylamino)-3-(2-oxoindolin-5-yl)-N-phenyl-imidazo[1,2-a]pyrazine-2-carboxamide], the IC50 was 6.31 nM.
Next, `C[C@@H]1COCCN1c1nccn2c(-c3ccc4c(c3)CC(=O)N4)c(-c3ccc(F)cc3)nc12` [Example 44, 5-[2-(4-Fluorophenyl)-8-[(3R)-3-methylmorpholin-4-yl]imidazo[1,2-a]pyrazin-3-yl]indolin-2-one]: 7.94 nM.
`CC(=O)N1CCN(c2nccn3c(-c4ccc5[nH]ncc5c4)c(Cc4ccccc4)nc23)CC1` [Example 18, 1-[4-[2-Benzyl-3-(1H-indazol-5-yl)imidazo[1,2-a]pyrazin-8-yl]piperazin-1-yl]ethanone]: the IC50 is 0.794 nM.
Next, `O=C1CN(c2nccn3c(-c4ccc5[nH]c(=O)[nH]c5c4)c(-c4ccc(F)cc4)nc23)CCN1` [Example 34, 5-[2-(4-Fluorophenyl)-8-(3-oxopiperazin-1-yl)imidazo[1,2-a]pyrazin-3-yl]-1,3-dihydrobenzimidazol-2-one]: 1.26 nM.
Next, `O=C1Cc2cc(-c3c(-c4ccccc4)nc4c(N5CC(F)C5)nccn34)ccc2N1` [Example 81, 5-[8-(3-Fluoroazetidin-1-yl)-2-phenyl-imidazo[1,2-a]pyrazin-3-yl]indolin-2-one]: 0.398 nM; `N#Cc1ccc(-c2nc3c(N4CCOCC4)nccn3c2-c2ccc3[nH]c(=O)[nH]c3c2)cc1` [Example 105, 4-[8-Morpholino-3-(2-oxo-1,3-dihydrobenzimidazol-5-yl)imidazo[1,2-a]pyrazin-2-yl]benzonitrile]: 1.26 nM; `COC1CCN(c2nccc3c(-c4ccc5[nH]c(=O)sc5c4)c(C(C)C)nn23)CC1` [Example 241, 6-[2-Isopropyl-7-(4-methoxy-1-piperidyl)pyrazolo[1,5-c]pyrimidin-3-yl]-3H-1,3-benzothiazol-2-one]: 2.51 nM.
Next, `O=C(Nc1ccncc1)c1nc2c(N3CCOCC3)nccn2c1-c1ccc2[nH]c(=O)[nH]c2c1` [Example 147, 8-Morpholino-3-(2-oxo-1,3-dihydrobenzimidazol-5-yl)-N-(4-pyridyl)imidazo[1,2-a]pyrazine-2-carboxamide]: 501 nM; `CNc1nccc2c(-c3ccc4c(c3)CC(=O)N4)c(-c3ccc(F)cc3)nn12` [Example 171, 5-[2-(4-Fluorophenyl)-7-(methylamino)pyrazolo[1,5-c]pyrimidin-3-yl]indolin-2-one]: 12.6 nM.
Take `CNc1nccn2c(-c3ccc4c(c3)CC(=O)N4)c(-c3ccc(F)cc3)nc12` [Example 167, 5-[2-(4-Fluorophenyl)-8-(methylamino)imidazo[1,2-a]pyrazin-3-yl]indolin-2-one]: the IC50 is 25.1 nM.
Next, `O=C1Cc2cc(-c3c(-c4ccc(F)cc4)nc4c(N5CC[C@@H](O)C5)nccn34)ccc2N1` (single isomer, unassigned) [Example 52, (R*)-5-[2-(4-Fluorophenyl)-8-(3-hydroxypyrrolidin-1-yl)imidazo[1,2-a]pyrazin-3-yl]indolin-2-one]: 1.58 nM; `O=C1Cc2cc(-c3c(-c4ccccc4)nn4c(OC5CCCC5)nccc34)ccc2N1` [Example 192, 5-[7-(Cyclopentoxy)-2-phenyl-pyrazolo[1,5-c]pyrimidin-3-yl]indolin-2-one]: 7.94 nM.
Next, `O=c1[nH]c2ccc(-c3c(C4CCC4)nn4cnc(C(F)(F)F)cc34)cc2s1` [Example 229, 6-[2-Cyclobutyl-5-(trifluoromethyl)pyrazolo[1,5-c]pyrimidin-3-yl]-3H-1,3-benzothiazol-2-one]: 15.8 nM; `CC(C)(C)c1nn2c(N3CCC(O)CC3)nccc2c1-c1ccc2c(c1)CC(=O)N2` [Example 181, 5-[2-tert-Butyl-7-(4-hydroxy-1-piperidyl)pyrazolo[1,5-c]pyrimidin-3-yl]indolin-2-one]: 200 nM; `O=C1Cc2cc(-c3c(C(=O)Nc4ccccc4)nc4c(N5CCOCC5)nccn34)ccc2N1` [Example 137, 8-Morpholino-3-(2-oxoindolin-5-yl)-N-phenylimidazo[1,2-a]pyrazine-2-carboxamide]: 6.31 nM.
Next, `O=C1Cc2cc(-c3c(-c4ccc(F)cc4)nc4c(N5CC(CO)C5)nccn34)ccc2N1` [Example 64, 5-[2-(4-Fluorophenyl)-8-[3-(hydroxymethyl)azetidin-1-yl]imidazo[1,2-a]pyrazin-3-yl]indolin-2-one]: 0.794 nM; `CC1COCCN1c1nccn2c(-c3ccc4c(c3)CC(=O)N4)c(-c3ccc(F)cc3)nc12` (stereo not drawn) [Example 39, 5-[2-(4-Fluorophenyl)-8-(3-methylmorpholin-4-yl)imidazo[1,2-a]pyrazin-3-yl]indolin-2-one]: 0.794 nM.
`O=C1Cc2cc(-c3c(Cc4ccccc4)nc4c(N5CCOCC5)nccn34)ccc2N1` [Example 20, 5-(2-Benzyl-8-morpholino-imidazo[1,2-a]pyrazin-3-yl)indolin-2-one]: the IC50 was 1 nM.
Next, `O=C1Cc2cc(-c3c(-c4ccc(F)cc4)nc4c(N5CC(F)(F)C5)nccn34)ccc2N1` [Example 60, 5-[8-(3,3-Difluoroazetidin-1-yl)-2-(4-fluorophenyl)imidazo[1,2-a]pyrazin-3-yl]indolin-2-one]: 1.58 nM; `COC1CCN(c2nccc3c(-c4ccc5[nH]c(=O)sc5c4)c(-c4ccccc4)nn23)CC1` [Example 213, 6-[7-(4-Methoxy-1-piperidyl)-2-phenyl-pyrazolo[1,5-c]pyrimidin-3-yl]-3H-1,3-benzothiazol-2-one]: 0.0631 nM; `C[C@H]1COCCN1c1nccn2c(-c3ccc4c(c3)CC(=O)N4)c(-c3ccc(F)cc3)nc12` [Example 43, 5-[2-(4-Fluorophenyl)-8-[(3S)-3-methylmorpholin-4-yl]imidazo[1,2-a]pyrazin-3-yl]indolin-2-one]: 0.631 nM.
As for `O=C1Cc2cc(-c3c(-c4ccc(F)cc4)nc4c(N5CCC(F)CC5)nccn34)ccc2N1` [Example 74, 5-[2-(4-Fluorophenyl)-8-(4-fluoro-1-piperidyl)imidazo[1,2-a]pyrazin-3-yl]indolin-2-one], the IC50 is 0.0794 nM.
Next, `O=C1Cc2cc(-c3c(-c4ccccc4)nc4cnccn34)ccc2N1` [Example 134, 5-(2-Phenylimidazo[1,2-a]pyrazin-3-yl)indolin-2-one]: 158 nM; `O=C1Cc2cc(-c3c(-c4ccc(F)cc4)nn4c(N5CCS(=O)(=O)CC5)nccc34)ccc2N1` [Example 170, 5-[7-(1,1-Dioxo-1,4-thiazinan-4-yl)-2-(4-fluorophenyl)pyrazolo[1,5-c]pyrimidin-3-yl]indolin-2-one]: 0.631 nM.
Turning to `O=c1[nH]c2ccc(-c3c(-c4ccc(F)cc4)nc4c(N5CCOCC5)nccn34)cc2[nH]1` [Example 11, 5-[2-(4-Fluorophenyl)-8-morpholino-imidazo[1,2-a]pyrazin-3-yl]-1,3-dihydrobenzimidazol-2-one], the IC50 was 0.398 nM.
Next, `O=C1Cc2cc(-c3c(-c4ccccc4)nc4c(N5CCC(CF)CC5)nccn34)ccc2N1` [Example 76, 5-[8-[4-(Fluoromethyl)-1-piperidyl]-2-phenyl-imidazo[1,2-a]pyrazin-3-yl]indolin-2-one]: 0.251 nM.
`O=C1CCN(c2nccn3c(-c4ccc5c(c4)CC(=O)N5)c(-c4ccc(F)cc4)nc23)CC1` [Example 109, 5-(2-(4-Fluorophenyl)-8-(4-oxopiperidin-1-yl)imidazo[1,2-a]pyrazin-3-yl)indolin-2-one]: the IC50 was 0.0631 nM.
Next, `O=c1[nH]c2ccc(-c3c(-c4ccc(F)cc4)nc4c(N5CCOCC5)ncc(F)n34)cc2[nH]1` [Example 162, 5-[5-Fluoro-2-(4-fluorophenyl)-8-morpholino-imidazo[1,2-a]pyrazin-3-yl]-1,3-dihydrobenzimidazol-2-one]: 3.98 nM; `O=C1Cc2cc(-c3c(-c4ccc(F)cc4)nc4c(N5CCCC5)nccn34)ccc2N1` [Example 45, 5-[2-(4-Fluorophenyl)-8-pyrrolidin-1-yl-imidazo[1,2-a]pyrazin-3-yl]indolin-2-one]: 1 nM.
Next, `CC(=O)N1CCN(c2nccn3c(-c4ccc5[nH]ncc5c4)c(-c4ccc(F)cc4)nc23)CC1` [Example 13, 1-[4-[2-(4-Fluorophenyl)-3-(1H-indazol-5-yl)imidazo[1,2-a]pyrazin-8-yl]piperazin-1-yl]ethanone]: 0.2 nM.

The values above are taken from US10513523B2, “Imidazopyrazines and pyrazolopyrimidines and their use as AMPA receptor modulators” (Janssen Pharmaceutica NV, priority 2015, dated 2019).
